We go through 17 compounds from patent publication US20230248833A1, “COMPOUND HAVING BTK KINASE DEGRADING ACTIVITY, AND PREPARATION METHOD AND PHARMACEUTICAL USE THEREFOR” (SICHUAN HAISCO PHARMACEUTICAL CO., LTD., priority 2020, published 2023).

One data set deals with Mino cells. Description: Inhibition of cell proliferation, Mino cells (Cell Viability Assay, 72 h). The data set is classed as cell-based, human. As to conditions: for IC50: Homo sapiens, MINO, 72 h; for Mino Max inhi. %: inhibition rate at the highest concentration of the compound. The protocol: SU-DHL-4, Mino, and SU-DHL-6 cells, in the culture medium of RPMI1640+10% FBS, were cultured in an incubator at 37° C. under 5% CO2. Cells were plated in a 96-well plate. Specifically, SU-DHL-4 cells were at 20000/well, Mino and SU-DHL-6 cells were at 5000/well, with 90 μL/well. 10 μL of the compounds at different concentrations were added to each well. There were 3 replicate wells for each concentration, and the last column, added with DMSO, was used as a vehicle control group. The cultures were continued for 72 hours at 37° C. under 5% CO2. After 72 hours, 100 μL of detection reagent (Cell Viability Assay, Promega, G7573) was added to each well, and the cultures were uniformly mixed for 2 minutes, and incubated at room temperature for 10 minutes. The […] signal value was measured with a microplate reader (PHERAstar FSX). The IC50 value of the compound on cell proliferation inhibition was calculated using origin9.2 software, and the inhibition rate at the highest concentration of the compound (Max inhi.%) was calculated according to formula (1).
Max inhi.%=(1−T72administration/T72vehicle)×100 Formula (1).

Data set [1] in a line: Pharmacokinetic experiment in rats. The data set is classed as in vivo. As to conditions: male, SD, rat, po, plasma, i.g. (20 mg/kg); for AUC(0-t): single dose. The protocol: Experimental objective: In this experiment, a single dose of each test compound was administered to SD rats intravenously and intragastrically, the concentrations of the test compound in plasma of rats were measured, and the pharmacokinetic characteristics and bioavailability of the test compound in rats were evaluated.
Experimental animals: Male SD rats, about 200 g, 6-8 weeks old, 6 rats/compound. Rats were purchased from Hunan SJA Laboratory Animal Co., Ltd, with the laboratory animal production license number of SCXK (Xiang) 2019-004.
Experimental method: On the day of the experiment, 6 SD rats were randomly grouped according to their body weight. The animals were fasted with water available for 12 to 14 hours one day before the administration of a test compound, and were fed 4 hours after the administration.
Before and after the administration, […] of blood was taken from the orbit of the rats under isoflurane anesthesia, and placed in an EDTAK2 centrifuge tube. Centrifugation was carried out at 5000 rpm at 4° C. for 10 min, and the plasma was collected.
Time points for sample collection in G1&G2 groups comprise
Before analysis and detection, all samples were stored at −80° C. The samples were detected by HPLC-MS/MS.

For the compound `Nc1ncnc2c1c(-c1ccc(Oc3ccccc3)cc1)nn2C1CC2(CCN(C3CN(C4CN(c5ccc6c(c5)C(=O)N(C5CCC(=O)NC5=O)C6=O)C4)C3)CC2)C1` (stereo not shown) [Compound 65, 5-(3-(2-(4-amino-3-(4-phenoxyphenyl)-1H-pyrazolo[3,4-d]pyrimidin-1-yl)-7-azaspiro[3.5]nonan-7-yl)-[1,3′-biazetidin]-1′-yl)-2-(2,6-dioxopiperidin-3-yl) isoindoline-1,3-dione], the IC50 in the data set with Mino cells amounted to 14 nM.

Consider `Nc1ncnc2c1c(-c1ccc(Oc3ccccc3)cc1)nn2C1CC2(CCN(C3CC4(CCN(c5ccc6c(c5)C(=O)N(C5CCC(=O)NC5=O)C6=O)CC4)C3)CC2)C1` (stereo not shown) [Compound 66, 5-(2′-(4-amino-3-(4-phenoxyphenyl)-1H-pyrazolo[3,4-d]pyrimidin-1-yl)-7,7′-diaza[2,7′-bispiro[3.5]nonan]-7-yl)-2-(2,6-dioxopiperidin-3-yl)isoindoline-1,3-dione], for which the midpoint of inhibition in the data set on Mino cells, the IC50, lay at 27 nM.

For the compound `Nc1ncnc2c1c(-c1ccc(Oc3ccccc3)cc1)nn2C1CCN(C2(C(F)(F)F)CCN(C3CN(c4ccc5c(c4)C(=O)N(C4CCC(=O)NC4=O)C5=O)C3)CC2)CC1` (stereo not shown) [Compound 70, 5-(3-(4-(4-amino-3-(4-phenoxyphenyl)-1H-pyrazolo[3,4-d]pyrimidin-1-yl)-4′-(trifluoromethyl)-[1,4′-bipiperidin]-1′-yl)azetidin-1-yl)-2-(2,6-dioxopiperidin-3-yl)isoindoline-1,3-dione], the concentration for half-maximal inhibition (IC50) with Mino cells is 101 nM. Compared with the last compound, the IC50 is about 3.7-fold higher.

For `Nc1ncnc2c1c(-c1ccc(Oc3ccccc3)cc1)nn2C1CCN(C2CN(C3CN(C(=O)CC45CC6CC(CC(C6)C4)C5)C3)C2)CC1` [Compound 72, 2-(1-adamantyl)-1-[3-[3-[4-[4-amino-3-(4-phenoxyphenyl)pyrazolo[3,4-d]pyrimidin-1-yl]-1-piperidyl]azetidin-1-yl]azetidin-1-yl]ethanone], in the data set on Mino cells, the concentration for half-maximal inhibition (IC50) lay in the range of 10 to 1000 nM and the “Mino Max inhi. %” value is recorded as 88.5%.

On to `Nc1ncnc2c1c(-c1ccc(Oc3ccccc3)cc1)nn2C1CCN(C2CCN(C3CN(C(=O)CC45CC6CC(CC(C6)C4)C5)C3)CC2)CC1` [Compound 73, 2-(1-adamantyl)-1-(3-(4-(4-amino-3-(4-phenoxyphenyl)pyrazolo[3,4-d]pyrimidin-1-yl)-[1,4′-bipiperidin]-1′-yl)azetidin-1-yl)ethan-1-one], for which the “Mino Max inhi. %” value in the data set with Mino cells came out at 99.8%.

For the compound `Nc1ncnc2c1c(-c1ccc(Oc3ccccc3)cc1)nn2C1CCN(C2CN(C(=O)CC34CC5CC(CC(C5)C3)C4)C2)CC1` [Compound 74, 2-((3r,5r,7r)-adamantan-1-yl)-1-(3-(4-(4-amino-3-(4-phenoxyphenyl)-1H-pyrazolo[3,4-d]pyrimidin-1-yl)piperidin-1-yl)azetidin-1-yl)ethanone], in the data set with Mino cells, the “Mino Max inhi. %” value is on record as 88.3%.

With `Nc1ncnc2c1c(-c1ccc(Oc3ccccc3)cc1)nn2C1CCC2(CC1)CN(C1CN(c3ccc4c(c3)C(=O)N(C3CCC(=O)NC3=O)C4=O)C1)C2` (stereo not shown) [Compound 75, 5-(3-(7-(4-amino-3-(4-phenoxyphenyl)-1H-pyrazolo[3,4-d]pyrimidin-1-yl)-2-azaspiro[3.5]nonan-2-yl)azetidin-1-yl)-2-(2,6-dioxopiperidin-3-yl)isoindoline-1,3-dione], in the data set on Mino cells, inhibition was half-maximal at 37 nM (IC50).

On to `Nc1ncnc2c1c(-c1ccc(Oc3ccccc3)cc1)nn2C1CCN(C2CN(C3CN(c4ccc5c(n4)CN(C4CCC(=O)NC4=O)C5=O)C3)C2)CC1` (stereo not shown) [Compound 76, 3-(2-(3-(4-(4-amino-3-(4-phenoxyphenyl)-1H-pyrazolo[3,4-d]pyrimidin-1-yl)piperidin-1-yl)-[1,3′-biazetidin]-1′-yl)-5-oxo-5,7-dihydro-6H-pyrrolo[3,4-b]pyridin-6-yl)piperidine-2,6-dione], for which the IC50 in the data set on Mino cells was 141 nM.

Turning to `NC(=O)c1c(-c2ccc(Oc3ccccc3)cc2)nn2c1NCC[C@H]2C1CCN(C2CN(CC3CN(c4ccc5c(c4)C(=O)N(C4CCC(=O)NC4=O)C5=O)C3)C2)CC1` (stereo partly drawn) [Compound 80, (7S)-7-(1-(1-((1-(2-(2,6-dioxopiperidin-3-yl)-1,3-dioxoisoindolin-5-yl)azetidin-3-yl)methyl)azetidin-3-yl)piperidin-4-yl)-2-(4-phenoxyphenyl)-4,5,6,7-tetrahydropyrazolo[1,5-a]pyrimidine-3-carboxamide], in the data set with Mino cells, the “Mino Max inhi. %” value is listed as 99.1%.

For the compound `NC(=O)c1c(-c2ccc(Oc3ccccc3)cc2)nn2c1NCC[C@H]2C1CCN(C2CCN(CC3CCN(c4ccc5c(c4)C(=O)N(C4CCC(=O)NC4=O)C5=O)CC3)CC2)CC1` (stereo partly drawn) [Compound 81, (7S)-7-(1′-((1-(2-(2,6-dioxopiperidin-3-yl)-1,3-dioxoisoindolin-5-yl)piperidin-4-yl)methyl)-[1,4′-bipiperidin]-4-yl)-2-(4-phenoxyphenyl)-4,5,6,7-tetrahydropyrazolo[1,5-a]pyrimidine-3-carboxamide], the “Mino Max inhi. %” value in the data set with Mino cells is 99.9%.

Turning to `NC(=O)c1c(-c2ccc(Oc3ccccc3)cc2)nn2c1NCC[C@H]2C1CCN(C2CCN(CC3CN(c4ccc5c(c4)C(=O)N(C4CCC(=O)NC4=O)C5=O)C3)CC2)CC1` (stereo partly drawn) [Compound 82, (7S)-7-(1′-((1-(2-(2,6-dioxopiperidin-3-yl)-1,3-dioxoisoindolin-5-yl)azetidin-3-yl)methyl)-[1,4′-bipiperidin]-4-yl)-2-(4-phenoxyphenyl)-4,5,6,7-tetrahydropyrazolo [1,5-a]pyrimidine-3-carboxamide], the “Mino Max inhi. %” value in the data set on Mino cells stood at 99.9%.

On to `NC(=O)c1c(-c2ccc(Oc3ccccc3)cc2)nn2c1NCC[C@H]2C1CCN(CC2CCN(c3ccc4c(c3)C(=O)N(C3CCC(=O)NC3=O)C4=O)CC2)CC1` (stereo partly drawn) [Compound 83, (7S)-7-(1-((1-(2-(2,6-dioxopiperidin-3-yl)-1,3-dioxoisoindolin-5-yl)piperidin-4-yl)methyl)piperidin-4-yl)-2-(4-phenoxyphenyl)-4,5,6,7-tetrahydropyrazolo[1,5-a]pyrimidine-3-carboxamide], for which the “Mino Max inhi. %” value in the data set with Mino cells amounted to 99.7%.

On to `Nc1ncnc2c1c(-c1ccc(Oc3ccccc3)cc1)nn2C1CCN(C2CCN(CC3CN(c4ccc5c(c4)C(=O)N(C4CCC(=O)NC4=O)C5=O)C3)CC2)CC1` (stereo not shown) [Compound 84, 5-(3-((4-(4-amino-3-(4-phenoxyphenyl)-1H-pyrazolo[3,4-d]pyrimidin-1-yl)-[1,4′-bipiperidin]-1′-yl)methyl)azetidin-1-yl)-2-(2,6-dioxopiperidin-3-yl)isoindoline-1,3-dione], for which the concentration for half-maximal inhibition (IC50) with Mino cells came out at 32 nM. Besides, the exposure AUC(0-t) in data set [1] is 176 ± 57 ng·h/mL.

In turn, `Nc1ncnc2c1c(-c1ccc(Oc3ccccc3)cc1)nn2C1CCN(C2CCN(CC3CCN(c4ccc5c(c4)C(=O)N(C4CCC(=O)NC4=O)C5=O)CC3)CC2)CC1` (stereo not shown) [Compound 86, 5-(4-((4-(4-amino-3-(4-phenoxyphenyl)-1H-pyrazolo[3,4-d]pyrimidin-1-yl)-[1,4′-bipiperidin]-1′-yl)methyl)piperidin-1-yl)-2-(2,6-dioxopiperidin-3-yl)isoindoline-1,3-dione] had an IC50 in the data set with Mino cells of 42 nM. Moreover, in data set [1], the AUC(0-t) is 247 ± 73 ng·h/mL.

In the data set with Mino cells, `Nc1ncnc2c1c(-c1ccc(Oc3ccccc3)c(F)c1)nn2C1CCN(C2CN(C3CN(c4ccc5c(c4)C(=O)N(C4CCC(=O)NC4=O)C5=O)C3)C2)CC1` (stereo not shown) [Compound 95, 5-(3-(4-(4-amino-3-(3-fluoro-4-phenoxyphenyl)-1H-pyrazolo[3,4-d]pyrimidin-1-yl)piperidin-1-yl)-[1,3′-biazetidin]-1′-yl)-2-(2,6-dioxopiperidin-3-yl)isoindoline-1,3-dione] came in with a half-inhibitory concentration (IC50) of 100 nM. The same compound gave a bioavailability in data set [1] (bioavailability) of 12.3 ± 2.1%. This compound displayed an exposure AUC(0-t) in data set [1] of 4270 ± 739 ng·h/mL.

`Nc1ncnc2c1c(-c1ccc(Oc3ccccc3)c(F)c1)nn2C1CCN(C2CCN(C3CN(c4ccc5c(c4)C(=O)N(C4CCC(=O)NC4=O)C5=O)C3)CC2)CC1` (stereo not shown) [Compound 96, 5-(3-(4-(4-amino-3-(3-fluoro-4-phenoxyphenyl)-1H-pyrazolo[3,4-d]pyrimidin-1-yl)-[1,4′-bipiperidin]-1′-yl)azetidin-1-yl)-2-(2,6-dioxopiperidin-3-yl)isoindoline-1,3-dione] displayed a half-maximal inhibitory concentration (IC50) with Mino cells of 501 nM.

For `Nc1ncnc2c1c(-c1ccc(Oc3ccccc3)cc1)nn2C1CCN(C2CN(CC3CN(c4ccc5c(c4)CN(C4CCC(=O)NC4=O)C5=O)C3)C2)CC1` (stereo not shown) [Compound 107, 3-(5-(3-((3-(4-(4-amino-3-(4-phenoxyphenyl)-1H-pyrazolo[3,4-d]pyrimidin-1-yl)piperidin-1-yl)azetidin-1-yl)methyl)azetidin-1-yl)-1-oxoisoindolin-2-yl)piperidine-2,6-dione], the AUC(0-t) in data set [1] was found to be 610 ± 131 ng·h/mL.

For orientation: IC50 means the concentration at which inhibition is half-maximal. A high value points to lower potency. What is called AUC(0-t) is the area under the concentration-time curve up to a stated or last time point. Read a high AUC(0-t) as high exposure. Broadly, the bioavailability is the share of a dose that reaches the circulation, judged against a reference dose that is usually intravenous. Read a low bioavailability as poor availability.
